# Results as given in article PMC12524796, “Discovery of Galloyl–Flavonoid Conjugates as SARS-CoV-2 3CL^pro Inhibitors: Understanding Binding Interactions Through Computational Approaches” (International Journal of Molecular Sciences, 2025).
# Read-outs that look alike come from different tables or passages of the source.
# Columns and labels:
# SARS-CoV-2 3CL^pro [1] = biological target: T1, SARS-CoV-2 3CL^pro (Severe acute respiratory syndrome coronavirus 2, UniProt P0DTD1); set-up: method as in PMID 38277124
# SARS-CoV-2 3CL^pro [2] = biological target: T1, SARS-CoV-2 3CL^pro; experiment: biochemical; format: biochemical; conditions: for inhibition at 100 µM: read-out: SARS-CoV-2 3CL^pro Inhibition 100 µM (%)
# 3CL^pro = system: 3CL^pro; set-up: method as in PMID 32272481; conditions: read-out: IC50 against 3CL^pro; cited from earlier work
# [3] = 100 µM compound; values marked footnote 3; cited from earlier work
# [4] = read-out: SARS-CoV-2 3CL^pro Inhibition IC50; values marked footnote 3; cited from earlier work
# [5] = values marked footnote 3; read-out: SARS-CoV-2 3CL^pro Inhibition IC50; cited from earlier work
# [6] = FRET assay, read-out: SARS-CoV-2 3CL^pro Inhibition IC50
structure (smiles),measurement,setting,value
"O=c1cc(-c2ccccc2)oc2cc(O)c(O)c(O)c12 [Compound 1, baicalein, reference compound]",SARS-CoV-2 3CL^pro Inhibition 100 µM (%),SARS-CoV-2 3CL^pro [1]; [3],62.95 ± 3.10 ^3%
"COc1cc(O)c2c(c1)O[C@H](c1ccccc1)CC2=O [Compound 6, pinostrobin]",SARS-CoV-2 3CL^pro Inhibition 100 µM (%),SARS-CoV-2 3CL^pro [1]; [3],26.44 ± 2.32 ^3%
same,IC50,SARS-CoV-2 3CL^pro [1]; [4],> 200 µM
"O=C1C[C@@H](c2ccccc2)Oc2cc(O)cc(O)c21 [Compound 7, pinocembrin]",SARS-CoV-2 3CL^pro Inhibition 100 µM (%),SARS-CoV-2 3CL^pro [1]; [3],27.18 ± 2.20 ^3%
same,IC50,SARS-CoV-2 3CL^pro [1]; [4],> 200 µM
"COc1cc(O)cc(O)c1C(=O)/C=C/c1ccccc1 [Compound 8, cardamonin]",SARS-CoV-2 3CL^pro Inhibition 100 µM (%),SARS-CoV-2 3CL^pro [1]; [3],85.60 ± 2.44 ^3%
same,IC50,SARS-CoV-2 3CL^pro [1]; [4],57.4 µM
"COc1c(C)c(O)c(C)c(O)c1C(=O)/C=C/c1ccccc1 [Compound 9, dimethylcardamonin]",SARS-CoV-2 3CL^pro Inhibition 100 µM (%),SARS-CoV-2 3CL^pro [1]; [3],84.59 ± 0.84 ^3%
same,IC50,SARS-CoV-2 3CL^pro [1]; [5],27.5 µM
"COc1cc(O)c2c(=O)cc(-c3ccccc3)oc2c1 [Compound 10, tectochrysin]",SARS-CoV-2 3CL^pro Inhibition 100 µM (%),SARS-CoV-2 3CL^pro [1]; [3],86.39 ± 0.19 ^3%
same,IC50,SARS-CoV-2 3CL^pro [1]; [4],24 µM
"O=c1cc(-c2ccccc2)oc2cc(O)cc(O)c12 [Compound 11, chrysin]",SARS-CoV-2 3CL^pro Inhibition 100 µM (%),SARS-CoV-2 3CL^pro [1]; [3],87.73 ± 0.66 ^3%
same,IC50,SARS-CoV-2 3CL^pro [1]; [5],32.8 µM
"C=CC(=O)Oc1cc(O)c2c(c1)O[C@H](c1ccccc1)CC2=O [Compound 13, 7-O-acryloylpinocembrin]",inhibition at 100 µM,SARS-CoV-2 3CL^pro [2],79.2 ± 1.52%
"C=CC(=O)Oc1cc(OC(=O)C=C)c2c(c1)O[C@H](c1ccccc1)CC2=O [Compound 14, 5,7-O-diacryloylpinocembrin]",inhibition at 100 µM,SARS-CoV-2 3CL^pro [2],76.2 ± 0.97%
"C=CC(=O)Oc1cc(O)c(C(=O)/C=C/c2ccccc2)c(OC)c1 [Compound 15, 4′-O-acryloylcardamonin]",inhibition at 100 µM,SARS-CoV-2 3CL^pro [2],66.6 ± 2.05%
"C=CC(=O)Oc1c(C)c(O)c(C(=O)/C=C/c2ccccc2)c(OC)c1C [Compound 16, 4′-O-acryloyl-DMC]",inhibition at 100 µM,SARS-CoV-2 3CL^pro [2],52.9 ± 1.17%
"C=CC(=O)Oc1cc(OC)c(C(=O)/C=C/c2ccccc2)c(OC(=O)C=C)c1 [Compound 17, 2′,4′-O-diacryloylcardamonin]",inhibition at 100 µM,SARS-CoV-2 3CL^pro [2],76.8 ± 4.85%
"C=CC(=O)Oc1c(C)c(OC)c(C(=O)/C=C/c2ccccc2)c(OC(=O)C=C)c1C [Compound 18, 2′,4′-O-diacryloyl-DMC]",inhibition at 100 µM,SARS-CoV-2 3CL^pro [2],68 ± 3.77%
"C=CC(=O)Oc1cc(OC)cc2oc(-c3ccccc3)cc(=O)c12 [Compound 19, 5-O-acryloyltectochrysin]",inhibition at 100 µM,"SARS-CoV-2 3CL^pro [2]; 100 µM compound, FRET assay",37.2 ± 2.09%
same,IC50,SARS-CoV-2 3CL^pro [2]; [6],> 100 µM
"C=CC(=O)Oc1cc(O)c2c(=O)cc(-c3ccccc3)oc2c1 [Compound 20, 7-O-acryloylchrysin]",inhibition at 100 µM,SARS-CoV-2 3CL^pro [2],84.01 ± 0.82%
"C=CC(=O)Oc1cc(OC(=O)C=C)c2c(=O)cc(-c3ccccc3)oc2c1 [Compound 21, 5,7-O-diacryloylchrysin]",inhibition at 100 µM,"SARS-CoV-2 3CL^pro [2]; 100 µM compound, FRET assay",32.3 ± 4.83%
same,IC50,SARS-CoV-2 3CL^pro [2]; [6],> 100 µM
"COc1cc(O)c2c(c1[N+](=O)[O-])O[C@H](c1ccccc1)CC2=O [Compound 22, 8-nitropinostrobin]",inhibition at 100 µM,SARS-CoV-2 3CL^pro [2],55 ± 3.96%
"COc1cc2c(c(O)c1[N+](=O)[O-])C(=O)C[C@@H](c1ccccc1)O2 [Compound 23, 6-nitropinostrobin]",inhibition at 100 µM,SARS-CoV-2 3CL^pro [2],53.5 ± 4.31%
"COc1c([N+](=O)[O-])c(O)c2c(c1[N+](=O)[O-])O[C@H](c1ccccc1)CC2=O [Compound 24, 6,8-dinitropinostrobin]",IC50,SARS-CoV-2 3CL^pro [2],> 100 µM
same,inhibition at 100 µM,SARS-CoV-2 3CL^pro [2],40 ± 3.27%
"COc1cc(O)c2c(c1N)O[C@H](c1ccccc1)CC2=O [Compound 25, 8-aminopinostrobin]",inhibition at 100 µM,"SARS-CoV-2 3CL^pro [2]; 100 µM compound, FRET assay",38.2 ± 3.74%
same,IC50,SARS-CoV-2 3CL^pro [2]; [6],> 100 µM
"COc1cc2c(c(O)c1N)C(=O)C[C@@H](c1ccccc1)O2 [Compound 26, 6-aminopinostrobin]",inhibition at 100 µM,"SARS-CoV-2 3CL^pro [2]; 100 µM compound, FRET assay",14.7 ± 5.85%
same,IC50,SARS-CoV-2 3CL^pro [2]; [6],> 100 µM
"COc1cc(OC(=O)c2ccccc2)c2c(c1)O[C@H](c1ccccc1)CC2=O [Compound 27, 5-O-benzoylpinostrobin]",inhibition at 100 µM,"SARS-CoV-2 3CL^pro [2]; 100 µM compound, FRET assay",43.4 ± 3.99%
same,IC50,SARS-CoV-2 3CL^pro [2]; [6],> 100 µM
"COc1cc(OC(=O)c2ccccc2OC(C)=O)c2c(c1)O[C@H](c1ccccc1)CC2=O [Compound 28, 5-O-(O-acetylsalicyloyl)pinostrobin]",inhibition at 100 µM,SARS-CoV-2 3CL^pro [2],89.7 ± 5.92%
"COc1cc(OC(=O)c2ccc(OC(C)=O)c(OC)c2)c2c(c1)O[C@H](c1ccccc1)CC2=O [Compound 29, 5-O-(O-acetylvanilloyl)pinostrobin]",inhibition at 100 µM,SARS-CoV-2 3CL^pro [2],84.4 ± 3.91%
"COc1cc(OC(=O)c2cc(OC(C)=O)c(OC(C)=O)c(OC(C)=O)c2)c2c(c1)O[C@H](c1ccccc1)CC2=O [Compound 30, 5-O-(tri-O-acetylgalloyl)pinostrobin]",inhibitory activity at 100 µM (in words),SARS-CoV-2 3CL^pro [2],moderate inhibitory activity
same,inhibition at 100 µM,SARS-CoV-2 3CL^pro [2],67.1 ± 2.93%
"COc1cc(OC(=O)c2cc(O)c(O)c(O)c2)c2c(c1)O[C@H](c1ccccc1)CC2=O [Compound 31, 5-O-galloylpinostrobin]",inhibition at 100 µM,"SARS-CoV-2 3CL^pro [2]; 100 µM compound, FRET assay",> 99%
same,IC50,SARS-CoV-2 3CL^pro [2]; [6],7.42 µM
same,increase of 3CL^pro inhibitory activity compared with the parent compound,SARS-CoV-2 3CL^pro [2]; versus parent compound,over 23 fold
"O=C(Oc1cc(O)c2c(c1)O[C@H](c1ccccc1)CC2=O)c1ccccc1 [Compound 32, 7-O-benzoylpinocembrin]",inhibition at 100 µM,SARS-CoV-2 3CL^pro [2],70.8 ± 2.72%
"CC(=O)Oc1ccccc1C(=O)Oc1cc(O)c2c(c1)O[C@H](c1ccccc1)CC2=O [Compound 33, 7-O-(O-acetylsalicyloyl)pinocembrin]",inhibition at 100 µM,SARS-CoV-2 3CL^pro [2],81.7 ± 0.89%
"COc1cc(C(=O)Oc2cc(O)c3c(c2)O[C@H](c2ccccc2)CC3=O)ccc1OC(C)=O [Compound 34, 7-O-(O-acetylvanilloyl)pinocembrin]",inhibition at 100 µM,SARS-CoV-2 3CL^pro [2],83.7 ± 3.37%
"CC(=O)Oc1cc(C(=O)Oc2cc(O)c3c(c2)O[C@H](c2ccccc2)CC3=O)cc(OC(C)=O)c1OC(C)=O [Compound 35, 7-O-(tri-O-acetylgalloyl)pinocembrin]",inhibitory activity at 100 µM (in words),SARS-CoV-2 3CL^pro [2],moderate inhibitory activity
same,inhibition at 100 µM,SARS-CoV-2 3CL^pro [2],73 ± 1.66%
"O=C(Oc1cc(O)c2c(c1)O[C@H](c1ccccc1)CC2=O)c1cc(O)c(O)c(O)c1 [Compound 36, 7-O-galloylpinocembrin]",inhibition at 100 µM,"SARS-CoV-2 3CL^pro [2]; 100 µM compound, FRET assay",> 99%
same,IC50,SARS-CoV-2 3CL^pro [2]; [6],7.53 µM
"COc1cc(OC(=O)c2cc(OC(C)=O)c(OC(C)=O)c(OC(C)=O)c2)cc(O)c1C(=O)/C=C/c1ccccc1 [Compound 37, 4′-O-(tri-O-acetylgalloyl)cardamonin]",inhibitory activity at 100 µM (in words),SARS-CoV-2 3CL^pro [2],moderate inhibitory activity
same,inhibition at 100 µM,SARS-CoV-2 3CL^pro [2],87.2 ± 3.25%
"COc1cc(OC(=O)c2cc(O)c(O)c(O)c2)cc(O)c1C(=O)/C=C/c1ccccc1 [Compound 38, 4′-O-galloylcardamonin]",inhibition at 100 µM,"SARS-CoV-2 3CL^pro [2]; 100 µM compound, FRET assay",> 99%
same,IC50,SARS-CoV-2 3CL^pro [2]; [6],13.3 µM
"COc1c(C)c(OC(=O)c2cc(OC(C)=O)c(OC(C)=O)c(OC(C)=O)c2)c(C)c(O)c1C(=O)/C=C/c1ccccc1 [Compound 39, 4′-O-(tri-O-acetylgalloyl)-DMC]",inhibitory activity at 100 µM (in words),SARS-CoV-2 3CL^pro [2],moderate inhibitory activity
same,inhibition at 100 µM,SARS-CoV-2 3CL^pro [2],72 ± 4.27%
"COc1c(C)c(OC(=O)c2cc(O)c(O)c(O)c2)c(C)c(O)c1C(=O)/C=C/c1ccccc1 [Compound 40, 4′-O-galloyl-DMC]",inhibition at 100 µM,"SARS-CoV-2 3CL^pro [2]; 100 µM compound, FRET assay",> 99%
same,IC50,SARS-CoV-2 3CL^pro [2]; [6],6.85 µM
"COc1cc(OC(=O)c2cc(OC(C)=O)c(OC(C)=O)c(OC(C)=O)c2)c2c(=O)cc(-c3ccccc3)oc2c1 [Compound 41, 5-O-(tri-O-acetylgalloyl)tectochrysin]",inhibitory activity at 100 µM (in words),SARS-CoV-2 3CL^pro [2],moderate inhibitory activity
same,inhibition at 100 µM,SARS-CoV-2 3CL^pro [2],72.8 ± 2.43%
"COc1cc(OC(=O)c2cc(O)c(O)c(O)c2)c2c(=O)cc(-c3ccccc3)oc2c1 [Compound 42, 5-O-galloyltectochrysin]",inhibition at 100 µM,"SARS-CoV-2 3CL^pro [2]; 100 µM compound, FRET assay",> 99%
same,IC50,SARS-CoV-2 3CL^pro [2]; [6],20.6 µM
"CC(=O)Oc1cc(C(=O)Oc2cc(O)c3c(=O)cc(-c4ccccc4)oc3c2)cc(OC(C)=O)c1OC(C)=O [Compound 43, 7-O-(tri-O-acetylgalloyl)chrysin]",inhibitory activity at 100 µM (in words),SARS-CoV-2 3CL^pro [2],moderate inhibitory activity
same,inhibition at 100 µM,SARS-CoV-2 3CL^pro [2],85.75 ± 0.48%
"O=C(Oc1cc(O)c2c(=O)cc(-c3ccccc3)oc2c1)c1cc(O)c(O)c(O)c1 [Compound 44, 7-O-galloylchrysin]",inhibition at 100 µM,"SARS-CoV-2 3CL^pro [2]; 100 µM compound, FRET assay",> 99%
same,IC50,SARS-CoV-2 3CL^pro [2]; [6],9.26 µM
O=c1c2ccccc2[se]n1-c1ccccc1 [Ebselen],IC50,3CL^pro,0.67 µM
"O=C(O)c1cc(O)c(O)c(O)c1 [gallic acid, reference compound]",IC50,SARS-CoV-2 3CL^pro [2],> 100 µM
same,inhibition at 100 µM,SARS-CoV-2 3CL^pro [2],1.72 ± 12.1%
